No end group written: not given here.
Biological target: T1, MIK2 ectodomain (MIK2ECD, residues 1–709) (Arabidopsis thaliana, UniProt Q8VZG8)
T1 construct: Arabidopsis thaliana MIK2 (residues 1–709); StrepII-9xHis (TEV-cleavable) (C, cleaved yes); made in house; host or cells: Trichoplusia ni Tnao38 insect cells (baculovirus, modified pFastBac)
T1 sequence (Q8VZG8 44-709): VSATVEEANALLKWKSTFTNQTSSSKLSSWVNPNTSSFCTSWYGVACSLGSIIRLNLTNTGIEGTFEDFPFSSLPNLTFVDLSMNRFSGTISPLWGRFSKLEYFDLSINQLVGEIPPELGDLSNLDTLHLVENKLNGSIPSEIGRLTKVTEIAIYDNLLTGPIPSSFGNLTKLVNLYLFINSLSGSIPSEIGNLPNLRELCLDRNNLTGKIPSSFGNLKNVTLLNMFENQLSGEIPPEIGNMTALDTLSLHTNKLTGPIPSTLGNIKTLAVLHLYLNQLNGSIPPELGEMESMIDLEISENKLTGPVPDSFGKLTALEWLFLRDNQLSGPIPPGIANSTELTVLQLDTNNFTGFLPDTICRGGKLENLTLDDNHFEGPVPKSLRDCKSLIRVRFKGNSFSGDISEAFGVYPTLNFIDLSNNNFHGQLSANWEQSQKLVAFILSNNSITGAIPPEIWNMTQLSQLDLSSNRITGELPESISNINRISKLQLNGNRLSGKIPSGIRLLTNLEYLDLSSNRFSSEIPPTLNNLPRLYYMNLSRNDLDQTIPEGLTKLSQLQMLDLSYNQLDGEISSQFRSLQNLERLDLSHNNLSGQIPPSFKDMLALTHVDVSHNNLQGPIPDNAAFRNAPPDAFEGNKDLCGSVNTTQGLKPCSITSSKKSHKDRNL
Experiment: ITC, MIK2 vs SCOOP12
Assay type: binding
Excerpt: ITC data were corrected for the heat of dilution by subtracting the mixing enthalpies for titrant solution injections into protein-free ITC buffer. […] The N values were fitted to 1 in the analysis.

## PVRSSQSSQAGGR [SCOOP12]
  Kd: 4.56 ± 0.299 µM

From PMC7846792, “Perception of a divergent family of phytocytokines by the Arabidopsis receptor kinase MIK2” (Nature Communications, 2021)
